The assay relates to skin. To be noted: guaranine 50 mg/mL, 1-2 mL solution or gel/100 cm^2 of skin, young subjects, compared to untreated subjects. As to the method: Bioactive molecules can be added and the mixture stirred for 30 minutes to 2 hours according to their liposoluble or water-soluble nature. The addition of collagen or gelatin (1-10%), Polawax™ (1-10%), cetyl alcohol (1-10%), fatty acids (stearic or palmitique, 1-10%), Tween™ 20% and terpenoid (i.e. limonene) is optional.

As to `Cn1c(=O)c2c(ncn2C)n(C)c1=O` [guaranine], the blood pressure result is “considerable increase” and the pulsations result is recorded as “considerable increase”.

The record behind these values is US20090076168A1, “AMINE-BASED AND IMINE-BASED POLYMERS, USES AND PREPARATION THEREOF” (priority 2005, published 2009).
